Measurements published in BindingDB's records for doi:10.7270/Q21V5CBG (NMMLSC, 2007).

Target: T1, fMet-Leu-Phe receptor (Homo sapiens, UniProt P21462)
T1 sequence (P21462 whole entry): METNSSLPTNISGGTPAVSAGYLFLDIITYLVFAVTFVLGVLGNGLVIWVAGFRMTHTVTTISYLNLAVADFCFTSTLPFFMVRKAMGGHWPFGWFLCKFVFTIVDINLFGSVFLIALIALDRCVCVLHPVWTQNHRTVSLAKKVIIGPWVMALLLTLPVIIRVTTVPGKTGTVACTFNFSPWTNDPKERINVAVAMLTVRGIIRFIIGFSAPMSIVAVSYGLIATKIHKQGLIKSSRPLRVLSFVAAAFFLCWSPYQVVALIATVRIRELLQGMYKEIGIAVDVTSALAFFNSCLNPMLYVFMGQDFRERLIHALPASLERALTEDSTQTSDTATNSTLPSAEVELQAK
Assay: human FPR1 ligand displacement potency – cell-based, flow cytometry, IC50, selectivity assay for FPRL1 ligand SAR project, dose response (AID 762)

Row | Ki | Compound
1 | > 37.6 µM | O=C(N1CCN(c2nc(-c3ccccc3)c3ccccc3n2)CC1)C(F)(F)F [2,2,2-trifluoro-1-[4-(4-phenyl-2-quinazolinyl)-1-piperazinyl]ethanone]
2 | > 27.2 µM | COc1ccc(-c2cc(C(F)(F)F)nc(N3CCN(C(c4ccccc4)c4ccccc4)CC3)n2)cc1OC [2-(4-benzhydrylpiperazin-1-yl)-4-(3,4-dimethoxyphenyl)-6-(trifluoromethyl)pyrimidine]
3 | > 31.7 µM | COc1ccc(-c2cc(C(F)(F)F)nc(N3CCN(Cc4ccccc4)CC3)n2)cc1OC [2-(4-benzylpiperazin-1-yl)-4-(3,4-dimethoxyphenyl)-6-(trifluoromethyl)pyrimidine]
4 | > 32.7 µM | COc1ccc(-c2cc(C(F)(F)F)nc(N3CCN(c4ccccc4)CC3)n2)cc1OC [4-(3,4-dimethoxyphenyl)-2-(4-phenyl-1-piperazinyl)-6-(trifluoromethyl)pyrimidine]
5 | > 33 µM | CCOC(=O)N1CCN(c2nc(-c3ccc(OC)c(OC)c3)cc(C(F)(F)F)n2)CC1 [4-[4-(3,4-dimethoxyphenyl)-6-(trifluoromethyl)-2-pyrimidinyl]-1-piperazinecarboxylic acid ethyl ester]
6 | > 47.2 µM | COc1ccc(-c2cn3cccnc3n2)cc1NC(=O)C1CC1 [MLS000045944]
7 | > 43.3 µM | COc1ccc(-c2cn3cccnc3n2)cc1NC(=O)C1CCCC1 [MLS000045945]
8 | > 37.4 µM | COc1ccc(CC(=O)Nc2cc(-c3cn4cccnc4n3)ccc2OC)cc1 [N-(5-imidazo[1,2-a]pyrimidin-2-yl-2-methoxy-phenyl)-2-(4-methoxyphenyl)acetamide]
9 | > 46.9 µM | COc1ccc(-c2cn3cccnc3n2)cc1NC(=O)C(C)C [N-(5-imidazo[1,2-a]pyrimidin-2-yl-2-methoxy-phenyl)-2-methyl-propanamide]
10 | > 49.1 µM | CCC(=O)Nc1cc(-c2cn3cccnc3n2)ccc1OC [N-(5-imidazo[1,2-a]pyrimidin-2-yl-2-methoxy-phenyl)propanamide]
